US20260232805A1, “METHODS FOR IMAGING USING SPCCT” (NH THERAGUIX, priority 2022, published 2026)

Experiment: Osmolarity of the contrast agent composition
Assay type: physicochemical
Details: comparator, hyperosmolar
From the text: For comparison, Dotarem® (gadoteric acid, GUERBET, FRANCE) is hyperosmolar at 1574 mosm, which can cause side effects in humans related to the hypertonicity of a hyperosmolar product creating an intense call of water from the interstitial and cellular spaces to the plasma, responsible for pain or heat. A pain threshold of 600 mOsm/kg has been set.

With `O=C([O-])CN1CCN(CC(=O)[O-])CCN(CC(=O)O)CCN(CC(=O)[O-])CC1.[Gd+3]` [Dotarem®, gadoteric acid] the Osmolarity was 1574 mosm.
